From patent US20250179049A1, “SALTS OF HETEROCYCLIC INHIBITORS OF MONOCARBOXYLATE TRANSPORTER 4 FOR THE TREATMENT OF DISEASE” (Vettore, LLC, priority 2022, published 2025)
Structures can show the parent of a compound that is named as a salt. Where two headings read alike, the source gives them in different places.

Key:
[1] = Rat pharmacokinetics, oral gavage; type: in vivo, Sprague-Dawley rats; parameters: AUClast/D: unit not given here; details: for MRT inf: read-out: MRTInf—obs; for AUC(0-t) / Cmax / Tmax / AUC0-24 salt/ AUC0-24 free/ / AUC0-24: rat
Description: Groups, Dosing, and Collection. […] Three rats per group were perorally administered 20, 60, or 200 mg Compound 1 free acid or 25, 75, or 250 mg in 0.5% methylcellulose in Saline for a final concentration of 2, 6, or 20 mg/mL Compound 1 free acid or 2.5, 7.5, or […]. Plasma was collected at 5 min, 15 min, 30 min, 1 hour, 2 hour, 4 hour, 6 hour, 8 hour, and 24 hour post dose via jugular vein.
Stock and Dose Prep. Stock solutions were prepared by dissolving 2.47 mg of Compound 1 (free acid) in 2.470 mL DMSO with vortexing to obtain 1 mg/mL solution of Compound 1 (free acid), or 2.09 mg of Compound 1 (Tris salt) in […] DMSO with vortexing to obtain 1 mg/mL solution of Compound 1 (Tris salt). Dosing solutions were prepared by vortexing/sonicating the following solids in solvent:
LC MS-MS Analysis. Liquid Chromatography with tandem mass spectrometry was used to determine plasma concentrations of Compound 1 Free Acid and Compound 1 Tris Salt in plasma samples collected at prescribed time points.
Appropriate serial concentrations of working solutions were achieved by diluting stock solution of analyte with 50% acetonitrile in water solution. Five μL of working solutions (10, 20, 50, 100, 500, 1000, 5000, 8000, 10000 ng/mL) were added to 50 μL of the blank male SD Rat plasma to achieve calibration standards of 1˜1000 ng/ml (1, 2, 5, 10, 50, 100, 500, 800, 1000 ng/mL) in a total volume of 55 μL. Five quality control (QC) samples at 2 ng/mL, 5 ng/mL, 10 ng/mL, 50 ng/mL and 800 ng/mL for plasma were prepared independently of those used for the calibration curves. These QC samples were prepared on the day of analysis in the same way as calibration standards. 55 μL standards, 55 μL QC samples and 55 μL unknown samples (50 μL plasma/blood with 5 μL blank solution) were added to 200 μL of methanol containing internal standard (dexamethasone) mixture for precipitating protein respectively, and vortexed for 30 seconds. After centrifugation at 4° C. and 4000 rpm for 15 minutes. The supernatant was diluted with water with a ratio of 1:2. 2 μL of the supernatant was injected into the LC/MS/MS system for quantitative analysis.
Instrumentation included HALO 90A C18 2.7 μm 2.1×50 mm HPLC column, a Prominence degasser DGU-20A5R(C), liquid chromatograph Shimadzu LC-30AD with communications bus module CBM-20A and Auto SIL-20AC HT; and an AB Sciex Triple Quad 5500 LC/MS/MS instrument.

[2] = 28-day repeat-dose toxicity study in rats; type: in vivo; details: female, Sprague Dawley, rat, in vivo, 75 mg/kg
Description: Compound 1 was administered to Sprague Dawley rats by oral gavage at doses of 25, 75, and 250 mg/kg/day (females) and 40, 120, and 400 mg/kg/day (males) for 28 days. Compound 1-related mortality occurred in 8 of the 15 toxicity males administered 400 mg/kg/day beginning on Day 8 through 24. […] Target tissues included bone marrow, spleen, thymus, liver, lymph nodes, epididymides, seminal vesicles, prostate, testes, uterus, and ovaries.
(§1) Compound 1 tris salt was evaluated for safety in 7- and 28-day studies in rats and dogs. […] The NOAELs for this rat study were 120 mg/kg/day for males and 75 mg/kg/day for females. […] The NOAEL determined in the 28-day dog GLP study was 150 mg/kg/day. These correspond to human equivalent doses (HEDs) of: • Rat: 75 mg/kg×0.16=12 mg/kg • Dog: 150 mg/kg×0.54=81 mg/kg

in vivo = test: in vivo; parameters: species or system beagle dogs; details: both sexes, beagle, dog, 150 mg/kg
Description: Compound 1 was administered to beagle dogs by oral gavage in a range finding study at doses of 30, 79, 240, or 790 mg/kg. […] Compound 1 was administered at doses of 10, 50, and 150 mg/kg/day in the pivotal repeat dose toxicity studies for 28 days.
as §1

[3] = Sprague-Dawley, plasma, rat PO 25 mg/kg, female, mean
[4] = Sprague-Dawley, plasma, rat PO 25 mg/kg, male, mean
[5] = Sprague-Dawley, plasma, rat PO 75 mg/kg, female, mean
[6] = Sprague-Dawley, plasma, rat PO 75 mg/kg, male, mean
[7] = Sprague-Dawley, plasma, rat PO 250 mg/kg, female, mean
[8] = Sprague-Dawley, plasma, rat PO 250 mg/kg, male, mean
[9] = Female, PO/20 mg/kg, Mean ± SD, 20 mg/kg
[10] = Female, PO/60 mg/kg, Mean ± SD, 60 mg/kg
[11] = Female, PO/200 mg/kg, Mean ± SD, 200 mg/kg

CC(C)(OCc1cc(-c2cccc(OC3CCC3)c2)n(-c2ccccc2N2CCC2)n1)C(=O)O [Compound 1 tris salt, tris salt of 2-((1-(2-(azetidin-1-yl)phenyl)-5-(3-cyclobutoxyphenyl)-1H-pyrazol-3-yl)methoxy)-2-methylpropanoic acid]
AUC(0-inf) [1, 3]: 1040 µg·h/mL | half-life [1, 3]: 6.53 h | MRT inf [1, 3]: 9.9 h | AUC(0-inf) [1, 4]: 357 µg·h/mL | half-life [1, 4]: 3.24 h | MRT inf [1, 4]: 6.1 h | AUC(0-inf) [1, 5]: 3270 µg·h/mL | half-life [1, 5]: 9.6 h | MRT inf [1, 5]: 14.7 h | AUC(0-inf) [1, 6]: 910 µg·h/mL | half-life [1, 6]: 2.91 h | MRT inf [1, 6]: 6.03 h | AUC(0-inf) [1, 7]: 16300 µg·h/mL | half-life [1, 7]: 40.5 h | MRT inf [1, 7]: 62 h | AUC(0-inf) [1, 8]: 2890 µg·h/mL | half-life [1, 8]: 12.2 h | MRT inf [1, 8]: 18.6 h | AUC(0-t) ([1]; female, Sprague-Dawley, plasma, po, 25 mg/kg, rat PO 25 mg/kg, female, mean, read-out: AUClast): 947 µg·h/mL | Cmax ([1]; female, Sprague-Dawley, plasma, po, 25 mg/kg, rat PO 25 mg/kg, female, mean, read-out: Cmax): 68.6 µg/mL | Tmax ([1]; female, Sprague-Dawley, plasma, po, 25 mg/kg, rat PO 25 mg/kg, female, mean, read-out: Tmax): 6 h | AUC(0-t) ([1]; female, Sprague-Dawley, plasma, po, 75 mg/kg, rat PO 75 mg/kg, female, mean, read-out: AUClast): 2540 µg·h/mL | Cmax ([1]; female, Sprague-Dawley, plasma, po, 75 mg/kg, rat PO 75 mg/kg, female, mean, read-out: Cmax): 171 µg/mL | Tmax ([1]; female, Sprague-Dawley, plasma, po, 75 mg/kg, rat PO 75 mg/kg, female, mean, read-out: Tmax): 5.33 h | AUC(0-t) ([1]; female, Sprague-Dawley, plasma, po, 250 mg/kg, rat PO 250 mg/kg, female, mean, read-out: AUClast): 4470 µg·h/mL | Cmax ([1]; female, Sprague-Dawley, plasma, po, 250 mg/kg, rat PO 250 mg/kg, female, mean, read-out: Cmax): 223 µg/mL | Tmax ([1]; female, Sprague-Dawley, plasma, po, 250 mg/kg, rat PO 250 mg/kg, female, mean, read-out: Tmax): 6.67 h | Total drug exposure across time (AUClast and AUCInf) compared with free acid ([1]; male and female rats): higher | AUC(0-t) ([1]; male, Sprague-Dawley, plasma, po, 25 mg/kg, rat PO 25 mg/kg, male, mean, read-out: AUClast): 352 µg·h/mL | Cmax ([1]; male, Sprague-Dawley, plasma, po, 25 mg/kg, rat PO 25 mg/kg, male, mean, read-out: Cmax): 44.2 µg/mL | Tmax ([1]; male, Sprague-Dawley, plasma, po, 25 mg/kg, rat PO 25 mg/kg, male, mean, read-out: Tmax): 2.86 h | AUC(0-t) ([1]; male, Sprague-Dawley, plasma, po, 25 mg/kg, Male, PO/25 mg/kg, Mean ± SD, read-out: AUC0-24): 352 µg·h/mL | Cmax ([1]; male, Sprague-Dawley, plasma, po, 25 mg/kg, Male, PO/25 mg/kg, Mean ± SD, read-out: Cmax): 44.2 µg/mL | Tmax ([1]; male, Sprague-Dawley, plasma, po, 25 mg/kg, Male, PO/25 mg/kg, Mean ± SD, read-out: Tmax): 2.9 ± 4.5 h | AUC(0-t) ([1]; male, Sprague-Dawley, plasma, po, 75 mg/kg, rat PO 75 mg/kg, male, mean, read-out: AUClast): 906 µg·h/mL | Cmax ([1]; male, Sprague-Dawley, plasma, po, 75 mg/kg, rat PO 75 mg/kg, male, mean, read-out: Cmax): 92.3 µg/mL | Tmax ([1]; male, Sprague-Dawley, plasma, po, 75 mg/kg, rat PO 75 mg/kg, male, mean, read-out: Tmax): 4 h | AUC(0-t) ([1]; male, Sprague-Dawley, plasma, po, 75 mg/kg, Male, PO/75 mg/kg, Mean ± SD, read-out: AUC0-24): 906 µg·h/mL | Cmax ([1]; male, Sprague-Dawley, plasma, po, 75 mg/kg, Male, PO/75 mg/kg, Mean ± SD, read-out: Cmax): 92.3 µg/mL | Tmax ([1]; male, Sprague-Dawley, plasma, po, 75 mg/kg, Male, PO/75 mg/kg, Mean ± SD, read-out: Tmax): 4 ± 2 h | AUC(0-t) ([1]; male, Sprague-Dawley, plasma, po, 250 mg/kg, rat PO 250 mg/kg, male, mean, read-out: AUClast): 2090 µg·h/mL | Cmax ([1]; male, Sprague-Dawley, plasma, po, 250 mg/kg, rat PO 250 mg/kg, male, mean, read-out: Cmax): 144 µg/mL | Tmax ([1]; male, Sprague-Dawley, plasma, po, 250 mg/kg, rat PO 250 mg/kg, male, mean, read-out: Tmax): 5.33 h | AUC(0-t) ([1]; male, Sprague-Dawley, plasma, po, 250 mg/kg, Male, PO/250 mg/kg, Mean ± SD, read-out: AUC0-24): 2090 µg·h/mL | Cmax ([1]; male, Sprague-Dawley, plasma, po, 250 mg/kg, Male, PO/250 mg/kg, Mean ± SD, read-out: Cmax): 144 µg/mL | Tmax ([1]; male, Sprague-Dawley, plasma, po, 250 mg/kg, Male, PO/250 mg/kg, Mean ± SD, read-out: Tmax): 5.3 ± 1.1 h | AUClast/D ([1]; rat PO 25 mg/kg, female, mean): 37897 | AUC—% Extrap—obs ([1]; rat PO 25 mg/kg, female, mean): 9% | AUClast/D ([1]; rat PO 25 mg/kg, male, mean): 14077 | AUC—% Extrap—obs ([1]; rat PO 25 mg/kg, male, mean): 1.28% | AUClast/D ([1]; rat PO 75 mg/kg, female, mean): 33882 | AUC—% Extrap—obs ([1]; rat PO 75 mg/kg, female, mean): 18.5% | AUClast/D ([1]; rat PO 75 mg/kg, male, mean): 12078 | AUC—% Extrap—obs ([1]; rat PO 75 mg/kg, male, mean): 0.473% | AUClast/D ([1]; rat PO 250 mg/kg, female, mean): 17869 | AUC—% Extrap—obs ([1]; rat PO 250 mg/kg, female, mean): 59.9% | AUClast/D ([1]; rat PO 250 mg/kg, male, mean): 8340 | AUC—% Extrap—obs ([1]; rat PO 250 mg/kg, male, mean): 26.5% | AUC0-24 salt/ AUC0-24 free/ ([1]; Female, PO/20 mg/kg): 1.07 | AUC0-24 [1, 9]: 947,000 ± 135,000 ng h/mL | Cmax [1, 9]: 68,600 ± 6400 ng/mL | AUC0-24 salt/ AUC0-24 free/ ([1]; Female, PO/60 mg/kg): 1.78 | AUC0-24 [1, 10]: 2,540,000 ± 503,000 ng h/mL | Cmax [1, 10]: 171,000 ± 11,600 ng/mL | AUC0-24 salt/ AUC0-24 free/ ([1]; Female, PO/200 mg/kg): 1.57 | AUC0-24 [1, 11]: 4,470,000 ± 705,000 ng h/mL | Cmax [1, 11]: 223,000 ± 29,900 ng/mL | Tmax [1, 11]: 6.7 ± 1.1 h | AUC0-24 salt/ AUC0-24 free/ ([1]; Male, PO/25 mg/kg): 2.11 | AUC0-24 salt/ AUC0-24 free/ ([1]; Male, PO/75 mg/kg): 2.03 | AUC0-24 salt/ AUC0-24 free/ ([1]; Male, PO/250 mg/kg): 1.89 | Human equivalent dose of NOAEL at 28 days [2]: 12 mg/kg | Human equivalent dose of NOAEL at 28 days (in vivo): 81 mg/kg
